Literature values, collected in patent US20100209363A1, “PERSONAL CLEANSING COMPOSITION INCLUDING A STRUCTURED SURFACTANT SYSTEM AND A SUN PROTECTION FACTOR COMPOSITION” (The Dial Corporation, priority 2009, published 2010).

Conditions: in capric triglyceride

Row | concentration up to which miscible with capric triglyceride | miscibility with capric triglyceride | Structure (SMILES)
1 | up to 16 wt. % | miscible | COc1ccc(C(=O)CC(=O)c2ccc(C(C)(C)C)cc2)cc1 [avobenzone, 4-tert-butyl-4′-methoxydibenzoylmethane]
2 | – | miscible | CCCCC(CC)COC(=O)C(C#N)=C(c1ccccc1)c1ccccc1 (stereo not drawn) [octocrylene, 2-ethylhexyl 2-cyano-3,3-diphenylacrylate]
